Data published in US6525001B1, “Substituted pyrimidine and pyridine herbicides” (Mid-American Commercialization Corporation, priority 1997, dated 2003).

What was measured:
Assay type in all cases: in vivo
[1] = system: large crabgrass (Digitaria sanguinalis); experiment: Test C; design: key: 0 was no effect; 100 was complete control; conditions: PREEMERGENCE
[2] = system: johnson grass (Sorghum halepense); experiment: Test E pre-/postemergence/post directed
Procedure, shortened: (§1)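 Greenhouse pots; compound in non-phytotoxic solvent with surfactant, sprayed preemergence within one day of planting, postemergence at two to four leaf stage (three to twenty cm), or post directed to plant base and soil. Visual injury rated 13 to 21 days after application, 0 (none) to 100 (complete control).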

[3] = system: itchgrass (Rottboellia exaltata); experiment: Test E pre-/postemergence/post directed
Procedure, shortened: as §1

[4] = system: Spanishneedles (Bidens bipinnata); experiment: Test E pre-/postemergence/post directed
Procedure, shortened: as §1

[5] = system: bermudagrass (Cynodon dactylon); experiment: Test E pre-/postemergence/post directed
Procedure, shortened: as §1

[6] = system: alexandergrass (Brachiaria plantaginea); experiment: Test E pre-/postemergence/post directed
Procedure, shortened: as §1

[7] = system: common ragweed (Ambrosia elatior); experiment: Test E pre-/postemergence/post directed
Procedure, shortened: as §1

[8] = system: sandbur (Cenchrus echinatus); experiment: Test E pre-/postemergence/post directed
Procedure, shortened: as §1

[9] = system: large crabgrass (Digitaria sanguinalis); experiment: Test E pre-/postemergence/post directed
Procedure, shortened: as §1

[10] = system: barnyardgrass (Echinochloa crus-galli); experiment: Test C; design: key: 0 was no effect; 100 was complete control; conditions: PREEMERGENCE
[11] = system: giant foxtail (Setaria faberii); experiment: Test C; design: key: 0 was no effect; 100 was complete control; conditions: PREEMERGENCE
[12] = system: arrowleaf sida (Sida rhombifolia); experiment: Test C; design: key: 0 was no effect; 100 was complete control; conditions: PREEMERGENCE
[13] = system: cotton (Gossypium hirsutum); experiment: Test C; design: key: 0 was no effect; 100 was complete control; conditions: PREEMERGENCE
[14] = system: ivyleaf morningglory (Ipomoea hederacea); experiment: Test C; conditions: PREEMERGENCE
[15] = system: velvetleaf (Abutilon theophrasti); experiment: Test C; conditions: PREEMERGENCE
[16] = system: wild poinsettia (Euphorbia heterophylla); experiment: Test C; design: key: 0 was no effect; 100 was complete control; conditions: PREEMERGENCE
[17] = system: hairy beggarticks (Bidens pilosa); experiment: Test C; design: key: 0 was no effect; 100 was complete control; conditions: PREEMERGENCE
[18] = system: eastern black nightshade (Solanum ptycanthum); experiment: Test C; design: key: 0 was no effect; 100 was complete control; conditions: PREEMERGENCE
[19] = system: redroot pigweed (Amaranthus retroflexus); experiment: Test C; design: key: 0 was no effect; 100 was complete control; conditions: PREEMERGENCE
[20] = system: cocklebur (Xanthium strumarium); experiment: Test C; design: key: 0 was no effect; 100 was complete control; conditions: PREEMERGENCE
[21] = system: surinam grass (Brachiaria decumbens); experiment: Test E pre-/postemergence/post directed; conditions: PREEMERGENCE
Procedure, shortened: as §1

COc1cnc(-c2ccc(C(F)(F)F)cc2)nc1Cc1cccc(C(F)(F)F)c1 [Compound 23]
5: Plant response rating, Barnyardgrass ([10]; Rate 70 g/ha) | Plant response rating, Cotton ([13]; Rate 35 g/ha) | Plant response rating, I. morningglory ([14]; Rate 35 g/ha) | Plant response rating, Wild poinsettia ([16]; Rate 35 g/ha) | Plant response rating, Wild poinsettia ([16]; Rate 70 g/ha) | Plant response rating, Cocklebur ([20]; Rate 140 g/ha)
70: Plant response rating, Johnsongrass ([2]; PREEMERGENCE, Rate 32 g/ha) | Plant response rating, Itchgrass ([3]; PREEMERGENCE, Rate 125 g/ha) | Plant response rating, Itchgrass ([3]; PREEMERGENCE, Rate 250 g/ha) | Plant response rating, Spanishneedles ([4]; PREEMERGENCE, Rate 64 g/ha) | Plant response rating, Com. ragweed ([7]; PREEMERGENCE, Rate 64 g/ha)
65: Plant response rating, Johnsongrass ([2]; POSTEMERGENCE, Rate 250 g/ha)
95: Plant response rating, E. blacknightsh ([18]; Rate 35 g/ha)
90: Plant response rating, Johnsongrass ([2]; PREEMERGENCE, Rate 250 g/ha) | Plant response rating, Bermudagrass ([5]; PREEMERGENCE, Rate 32 g/ha)
98: Plant response rating, Bermudagrass ([5]; PREEMERGENCE, Rate 64 g/ha) | Plant response rating, Bermudagrass ([5]; PREEMERGENCE, Rate 125 g/ha) | Plant response rating, Bermudagrass ([5]; PREEMERGENCE, Rate 250 g/ha) | Plant response rating, Alexandergrass ([6]; PREEMERGENCE, Rate 250 g/ha) | Plant response rating, Sandbur ([8]; PREEMERGENCE, Rate 250 g/ha) | Plant response rating, Large crabgrass ([9]; PREEMERGENCE, Rate 32 g/ha) | Plant response rating, Large crabgrass ([9]; PREEMERGENCE, Rate 64 g/ha)
100: Plant response rating, Large crabgrass ([1]; Rate 35 g/ha) | Plant response rating, Large crabgrass ([1]; Rate 70 g/ha) | Plant response rating, Large crabgrass ([1]; Rate 140 g/ha) | Plant response rating, Giant foxtail ([11]; Rate 70 g/ha) | Plant response rating, Giant foxtail ([11]; Rate 140 g/ha) | Plant response rating, Arrowleaf sida ([12]; Rate 70 g/ha) | Plant response rating, Arrowleaf sida ([12]; Rate 140 g/ha) | Plant response rating, H. beggarticks ([17]; Rate 140 g/ha) | Plant response rating, E. blacknightsh ([18]; Rate 70 g/ha) | Plant response rating, E. blacknightsh ([18]; Rate 140 g/ha) | Plant response rating, Redroot pigweed ([19]; Rate 35 g/ha) | Plant response rating, Redroot pigweed ([19]; Rate 70 g/ha) | Plant response rating, Redroot pigweed ([19]; Rate 140 g/ha)
50: Plant response rating, Com. ragweed ([7]; PREEMERGENCE, Rate 32 g/ha) | Plant response rating, Velvetleaf ([15]; Rate 35 g/ha) | Plant response rating, Velvetleaf ([15]; Rate 140 g/ha) | Plant response rating, H. beggarticks ([17]; Rate 35 g/ha) | Plant response rating, H. beggarticks ([17]; Rate 70 g/ha)
85: Plant response rating, Alexandergrass ([6]; PREEMERGENCE, Rate 125 g/ha) | Plant response rating, Sandbur ([8]; PREEMERGENCE, Rate 32 g/ha) | Plant response rating, Giant foxtail ([11]; Rate 35 g/ha)
60: Plant response rating, Itchgrass ([3]; PREEMERGENCE, Rate 64 g/ha) | Plant response rating, Spanishneedles ([4]; PREEMERGENCE, Rate 32 g/ha)
80: Plant response rating, Johnsongrass ([2]; PREEMERGENCE, Rate 64 g/ha) | Plant response rating, Johnsongrass ([2]; PREEMERGENCE, Rate 125 g/ha) | Plant response rating, Itchgrass ([3]; POSTEMERGENCE, Rate 250 g/ha) | Plant response rating, Alexandergrass ([6]; POSTEMERGENCE, Rate 250 g/ha) | Plant response rating, Sandbur ([8]; PREEMERGENCE, Rate 64 g/ha) | Plant response rating, Sandbur ([8]; PREEMERGENCE, Rate 125 g/ha) | Plant response rating, Arrowleaf sida ([12]; Rate 35 g/ha)
10: Plant response rating, Spanishneedles ([4]; POSTEMERGENCE, Rate 250 g/ha) | Plant response rating, Bermudagrass ([5]; POSTEMERGENCE, Rate 250 g/ha) | Plant response rating, Barnyardgrass ([10]; Rate 140 g/ha) | Plant response rating, Wild poinsettia ([16]; Rate 140 g/ha)
75: Plant response rating, Cotton ([13]; Rate 70 g/ha) | Plant response rating, Cotton ([13]; Rate 140 g/ha)
40: Plant response rating, Com. ragweed ([7]; POSTEMERGENCE, Rate 250 g/ha) | Plant response rating, Large crabgrass ([9]; POSTEMERGENCE, Rate 250 g/ha) | Plant response rating, I. morningglory ([14]; Rate 140 g/ha)
0: Plant response rating, Barnyardgrass ([10]; Rate 35 g/ha)
20: Plant response rating, Sandbur ([8]; POSTEMERGENCE, Rate 250 g/ha)
30: Plant response rating, Itchgrass ([3]; PREEMERGENCE, Rate 32 g/ha)

CCc1cnc(-n2ccc(C(F)(F)F)n2)nc1Cc1cccc(C(F)(F)F)c1 [Compound 46]
85: Plant response rating, Spanishneedles ([4]; PREEMERGENCE, Rate 64 g/ha)
10: Plant response rating, Sandbur ([8]; PREEMERGENCE, Rate 64 g/ha) | Plant response rating, Sandbur ([8]; PREEMERGENCE, Rate 125 g/ha) | Plant response rating, Barnyardgrass ([10]; Rate 70 g/ha) | Plant response rating, Cocklebur ([20]; Rate 70 g/ha)
30: Plant response rating, Sandbur ([8]; PREEMERGENCE, Rate 250 g/ha)
15: Plant response rating, Wild poinsettia ([16]; Rate 70 g/ha)
55: Plant response rating, Surinam grass ([21]; Rate 250 g/ha)
98: Plant response rating, Bermudagrass ([5]; PREEMERGENCE, Rate 64 g/ha) | Plant response rating, Com. ragweed ([7]; PREEMERGENCE, Rate 64 g/ha) | Plant response rating, Com. ragweed ([7]; PREEMERGENCE, Rate 125 g/ha) | Plant response rating, Large crabgrass ([9]; PREEMERGENCE, Rate 64 g/ha)
80: Plant response rating, Large crabgrass ([1]; Rate 35 g/ha) | Plant response rating, Velvetleaf ([15]; Rate 70 g/ha) | Plant response rating, Velvetleaf ([15]; Rate 140 g/ha) | Plant response rating, E. blacknightsh ([18]; Rate 35 g/ha)
45: Plant response rating, I. morningglory ([14]; Rate 35 g/ha)
40: Plant response rating, Itchgrass ([3]; PREEMERGENCE, Rate 125 g/ha) | Plant response rating, Itchgrass ([3]; PREEMERGENCE, Rate 250 g/ha) | Plant response rating, Surinam grass ([21]; Rate 125 g/ha) | Plant response rating, Cotton ([13]; Rate 140 g/ha)
65: Plant response rating, Spanishneedles ([4]; PREEMERGENCE, Rate 32 g/ha)
100: Plant response rating, Large crabgrass ([1]; Rate 70 g/ha) | Plant response rating, Large crabgrass ([1]; Rate 140 g/ha) | Plant response rating, Giant foxtail ([11]; Rate 35 g/ha) | Plant response rating, Giant foxtail ([11]; Rate 70 g/ha) | Plant response rating, Giant foxtail ([11]; Rate 140 g/ha) | Plant response rating, Arrowleaf sida ([12]; Rate 35 g/ha) | Plant response rating, Arrowleaf sida ([12]; Rate 140 g/ha) | Plant response rating, H. beggarticks ([17]; Rate 70 g/ha) | Plant response rating, H. beggarticks ([17]; Rate 140 g/ha) | Plant response rating, E. blacknightsh ([18]; Rate 70 g/ha) | Plant response rating, E. blacknightsh ([18]; Rate 140 g/ha) | Plant response rating, Redroot pigweed ([19]; Rate 70 g/ha) | Plant response rating, Redroot pigweed ([19]; Rate 140 g/ha)
5: Plant response rating, Barnyardgrass ([10]; Rate 35 g/ha) | Plant response rating, Cotton ([13]; Rate 70 g/ha) | Plant response rating, Cocklebur ([20]; Rate 140 g/ha)
50: Plant response rating, Barnyardgrass ([10]; Rate 140 g/ha) | Plant response rating, I. morningglory ([14]; Rate 70 g/ha) | Plant response rating, I. morningglory ([14]; Rate 140 g/ha) | Plant response rating, Velvetleaf ([15]; Rate 35 g/ha)
90: Plant response rating, Spanishneedles ([4]; PREEMERGENCE, Rate 125 g/ha) | Plant response rating, Spanishneedles ([4]; PREEMERGENCE, Rate 250 g/ha) | Plant response rating, Large crabgrass ([9]; PREEMERGENCE, Rate 32 g/ha) | Plant response rating, Arrowleaf sida ([12]; Rate 70 g/ha)
20: Plant response rating, Wild poinsettia ([16]; Rate 140 g/ha)
0: Plant response rating, Cotton ([13]; Rate 35 g/ha) | Plant response rating, Wild poinsettia ([16]; Rate 35 g/ha) | Plant response rating, H. beggarticks ([17]; Rate 35 g/ha) | Plant response rating, Cocklebur ([20]; Rate 35 g/ha)
70: Plant response rating, Bermudagrass ([5]; PREEMERGENCE, Rate 32 g/ha) | Plant response rating, Redroot pigweed ([19]; Rate 35 g/ha)
60: Plant response rating, Alexandergrass ([6]; PREEMERGENCE, Rate 125 g/ha) | Plant response rating, Alexandergrass ([6]; PREEMERGENCE, Rate 250 g/ha)
